Assay results reported in patent publication US11958863B2, “Binding competitors for use in macrophilin-binding pharmaceutical assays and methods of use thereof” (Siemens Healthcare Diagnostics Inc., priority 2018, dated 2024).

Tests used:
[1] = tested on: endogenous binding proteins (immunophilins such as FKBPs); assay: Everolimus (EVRO) DIMENSION immunoassay standard curves with displacers; settings: whole blood sample
Experimental: (§1) The automated DIMENSION® assay system (Siemens Healthcare Diagnostics Inc., Tarrytown, NY), the everolimus (EVRO) assay method uses an immunoassay technique in which free and everolimus-bound antibody-enzyme conjugate is separated using magnetic particles. The assay antibody used for this assay is a mouse monoclonal antibody (cell line: 155-M1). The assay was performed using a method specific FLEX® reagent cartridge (Siemens Healthcare Diagnostics Inc., Tarrytown, NY). The FLEX® reagent cartridge contains a pretreatment reagent, antibody-β-galactosidase conjugate, everolimus analog immobilized on chromium dioxide particles, chlorophenol red β-d-galactopyranoside (CPRG) substrate, and diluent to hydrate the tablets. To perform the EVRO assay, a sample cup (or SSC) containing the whole blood sample to be analyzed and an EVRO FLEX® reagent cartridge were placed appropriately on the DIMENSION® system. The DIMENSION® system mixed and lysed the whole blood sample in the presence of the pretreatment reagent that contains detergents and a displacer (FK506 or FK506 analogs as described previously). This reagent contains a displacer which acts to displace everolimus in the sample from endogenous binding proteins (immunophilins such as FKBPs, etc.). The lysed sample was then mixed with the antibody enzyme conjugate. The everolimus present in the sample was bound by the everolimus antibody. Magnetic particles coated with everolimus analog were added to bind free (unbound) antibody-enzyme conjugate. The reaction mixture was then separated magnetically. Following separation, the supernatant containing the everolimus-antibody-enzyme complex was transferred to a cuvette and mixed with the substrate, chlorophenol red β-d-galactopyranoside (CPRG). β-galactosidase catalyzes the hydrolysis of CPRG to produce chlorophenol red (CPR) that absorbs light maximally at 577 nm. The change in absorbance at 577 nm due to the formation of CPR is directly proportional to the amount of everolimus in the patient's sample and is measured using a bichromatic (577 nm, 700 nm) rate technique.
The assay was conducted in the absence of any displacer as well as in the presence of the following displacers: tacrolimus (FK506, as represented by Formula I), FK506 Ester (disclosed in U.S. Pat. No. 7,186,518), FK506 C24 succinate (as represented by Formula VII), Reduced FK506 (as represented by Formula IV), FK506 22-oxime-32-isocyanatoacetatethyl ester (as represented by Formula VI), and FK506 oxime (as represented by Formula V).
The ability of the FK analogs to displace everolimus drug in the everolimus assay is a function of their FKBP (macrophilin) binding. So the curve size after adding the displacer indicates the ability of their FKBP binding: the larger the curve size, the better the binding.

[2] = tested on: everolimus assay antibody (155-M1 Clone); assay: Cross-reactivity with everolimus assay antibody; format: binding, mouse; settings: for % Cross-Reactivity: everolimus assay antibody 155-M1 clone
Experimental: as §1
(§2) Table 2 indicates the cross-reactivities detected for the various displacers of the present disclosure with the everolimus assay antibody (155-M1), while Table 3 indicates the cross-reactivities detected for the various displacers of the present disclosure with the tacrolimus assay antibody (1E2 clone).

[3] = tested on: tacrolimus assay antibody (1E2 Clone); assay: Cross-reactivity with tacrolimus assay antibody; format: binding; settings: for Cross-reactivity with tacrolimus assay antibody (in words): 1E2 clone, compared with the '518 patent analog; for % Cross-Reactivity: tacrolimus assay antibody 1E2 clone
Experimental: as §2
Next, the cross-reactivity of each of the analogs used in the everolimus assay was tested with the antibody used in the tacrolimus assay (Table 3). While efforts may be made to minimize reagent carryover from the everolimus assay to the tacrolimus assay, an automated instrument may run both everolimus and tacrolimus (or sirolimus) assays simultaneously. Therefore, due to the use of a large amount of displacer (tacrolimus analogs) present in the everolimus assay, the displacer could be carried into the tacrolimus assay, and this would cause a falsely elevated signal in the tacrolimus assay if cross-reaction were observed.

| Structure (SMILES) | Everolimus standard curve signal with displacer ([1]; BV 0 ng/mL everolimus) | Everolimus standard curve signal with displacer ([1]; BV 5.5 ng/mL everolimus) | Everolimus standard curve signal with displacer ([1]; BV 11.2 ng/mL everolimus) | Everolimus standard curve signal with displacer ([1]; BV 21.9 ng/mL everolimus) | Everolimus standard curve signal with displacer ([1]; BV 34.3 ng/mL everolimus) | % Cross-Reactivity [2] [%] | Cross-reactivity with tacrolimus assay antibody (in words) [3] | % Cross-Reactivity [3] [%] | Cross-reactivity with everolimus assay antibody (in words) ([2]; 155-M1 clone) |
| --- | --- | --- | --- | --- | --- | --- | --- | --- | --- |
| CCC[C@@H]1CC(C)C[C@H](C)C[C@H](OC)[C@H]2O[C@@](O)(C(=O)C(=O)N3CCCC[C@H]3C(=O)O[C@H](C(C)C[C@@H]3CC[C@@H](OC(=O)NCC(=O)OCC)[C@H](OC)C3)[C@H](C)[C@@H](O)CC1=NOCC(=O)O)[C@H](C)C[C@@H]2OC (stereo partly drawn) [FK-506-1] | 18 | 68 | 102 | 140 | 154 | 0.02 | much lower cross-reactivities | 1.5 | – |
| C=CC[C@@H]1/C=C(\C)C[C@H](C)C[C@H](OC)[C@H]2O[C@@](O)(C(=O)C(=O)N3CCCC[C@H]3C(=O)O[C@H](/C(C)=C/[C@@H]3CC[C@@H](O)[C@H](OC)C3)[C@H](C)[C@@H](O)CC1=O)[C@H](C)C[C@@H]2OC [FK506, Tacrolimus, reference compound] | 17 | 67 | 104 | 143 | 156 | 0.01 | – | 100 | substantially no cross-reactivity |
| C=CC[C@@H]1/C=C(\C)C[C@H](C)C[C@H](OC)[C@H]2O[C@@](O)(C(=O)C(=O)N3CCCC[C@H]3C(=O)O[C@H](/C(C)=C/[C@@H]3CC[C@@H](O)[C@H](OC)C3)[C@H](C)[C@@H](OC(=O)CCC(=O)O)CC1=O)[C@H](C)C[C@@H]2OC [24-Succinate FK506, FK506 C24 succinate] | 16 | 71 | 108 | 145 | 157 | 0.01 | much lower cross-reactivities | 13.3 | – |
